Data on 13 compounds can be found in patent publication US7304093B2, “Ketone compounds and compositions for cholesterol management and related uses” (Esperion Therapeutics, Inc., priority 2000, dated 2007).

Like-named read-outs stand apart in the source and are kept apart here.

For orientation: IC50 means the concentration needed to halve the response being measured.

Assay [1] relates to female obese Zucker rats. Briefly: Serum lipid and glycemic control variables in chow-fed obese female Zucker rats, daily oral gavage for two weeks. The format is in vivo, rat. Particulars: Rattus norvegicus, Table 9; for change in vivo at 30 mg/kg: 30 mg/kg daily oral; for change in vivo at 100 mg/kg: 100 mg/kg daily oral. The method, then:
Ten- to twelve-week old (400-500 grams) female Zucker fatty rats Cr1: (Zuc)-faBR were obtained from Charles River Laboratories. Animals were acclimated to the laboratory environment for seven days. During the acclimation and study period, animals were housed by group in shoebox polycarbonate cages on Cellu-Dri bedding. The temperature and humidity in the animals' quarters (68-78° F.; 30-75% RH) were monitored and the airflow in the room was sufficient to provide several exchanges per hour with 100% fresh filtered air. An automatic timing device provided an alternating 12-hour cycle of light and dark. Rats received pelleted Purina Laboratory Rodent Chow® (5001) prior to and during the drug intervention period except for a 6-hour phase prior to blood sampling. Fresh water was supplied ad libitum via an automatic watering system. Compounds were dissolved, suspended by mixing in a dosing vehicle consisting of 1.5% carboxymethylcellulose/0.2% Tween 20 or 20% ethanol and 80% polyethylene glycol-200 [v/v]. Dose volume of vehicle or vehicle plus each compound was set at 0.25% of body weight in order to deliver the appropriate dose. Doses were administered daily by oral gavage, approximately between 8-10 AM. Regarding blood sampling, animals were fasted for 6 hours prior to all blood collections. Prior to and after 7 days of dosing, a 1.0- to 2.0-mL sample of blood was collected by administering O2/CO2 anesthesia and bleeding from the orbital venous plexus. Following 14 days of dosing, blood was collected by cardiac puncture after euthanasia with CO2. All blood samples were processed for separation of serum and stored at −80° C. until analysis. Commercially available kits were used to determine serum triglycerides (Roche Diagnostic Corporation, Kit No. 148899 or Boehringer Mannheim, Kit No. 1488872), total cholesterol (Roche Diagnostic Corporation, Kit No. 450061), non-esterified fatty acids (Wako Chemicals, Kit No. 994-75409) and β-hydroxybutyrate (Wako Chemicals, Kit No. 417-73501 or Sigma Kit. No. 310-0) on a Hitachi 912 Automatic Analyzer (Roche Diagnostic Corporation). In some instances, an in-house cholesterol reagent was used to determine total serum cholesterol levels. Serum lipoprotein cholesterol levels were determined by lipoprotein profile analysis. Lipoprotein profiles were analyzed using gel-filtration chromatography on a Superose 6HR (1×30 cm) column equipped with on-line detection of total cholesterol as described by Kieft et al (Kieft, K. A.; Bocan, T. M.; Krause, B. R. Rapid on-line determination of cholesterol distribution among plasma lipoproteins after high-performance gel filtration chromatography. J. Lipid Res. 1991, 32, 859-866.). The total cholesterol content of each lipoprotein was calculated by multiplying the independent values determined for serum total cholesterol by the percent area of each lipoprotein in the profile. The percent body weight gain and the ratio of liver to body weight is also determined. Selected data are shown as absolute values or as a percent change of the pretreatment values in Tables 8 and 9.
Select compounds (214c, 210c, and 210g) were further evalutated in the Zucker rat by performing a full dose response and measuring additional scrum variables including markers for diabetes (Tables 10-12).

In assay [2] the test system is primary rat hepatocytes. Briefly: Inhibition of lipid synthesis ([1-14C]-acetate incorporation) in primary cultures of rat hepatocytes. Particulars: Hepatocyte, 4 h incubation with [1-14C]-acetate. Type of assay: cell-based. On the procedure:
Compounds were tested for inhibition of lipid synthesis in primary cultures of rat hepatocytes. Male Sprague-Dawley rats were anesthetized with intraperitoneal injection of sodium pentobarbital (80 mg/kg). Rat hepatocytes were isolated essentially as described by the method of Seglen (Seglen, P. O. Hepatocyte suspensions and cultures as tools in experimental carcinogenesis. J. Toxicol. Environ. Health 1979, 5, 551-560). Hepatocytes were suspended in Dulbecco's Modified Eagles Medium containing 25 mM D-glucose, 14 mM HEPES, 5 mM L-glutamine, 5 mM leucine, 5 mM alanine, 10 mM lactate, 1 mM pyruvate, 0.2% bovine serum albumin, 17.4 mM non-essential amino acids, 20% fetal bovine serum, […] and 20 μg/mL gentamycin) and plated at a density of 1.5×10^5 cells/cm^2 on collagen-coated 96-well plates. Four hours after plating, media was replaced with the same media without serum. Cells were grown overnight to allow formation of monolayer cultures. Lipid synthesis incubation conditions were initially assessed to ensure the linearity of [1-^14C]-acetate incorporation into hepatocyte lipids for up to 4 hours. Hepatocyte lipid synthesis inhibitory activity was assessed during incubations in the presence of 0.25 μCi [1-^14C]-acetate/well (final radiospecific activity in assay is 1 Ci/mol) and 0, 1, 3, 10, 30, 100 or 300 μM of compounds for 4 hours. At the end of the 4-hour incubation period, medium was discarded and cells were washed twice with ice-cold phosphate buffered saline and stored frozen prior to analysis. To determine total lipid synthesis, 170 μl of MicroScint-E® and 50 μl water was added to each well to extract and partition the lipid soluble products to the upper organic phase containing the scintillant. Lipid radioactivity was assessed by scintillation spectroscopy in a Packard TopCount NXT.

Setting [3] is: 168 h, 1 wk, read-out: HDL-Cholesterol, Percent Change from Pre-Treatment.
Where [4] appears, read: 168 h, 1 wk, read-out: NonHDL-Cholesterol, Percent Change from Pre-Treatment.
Setting [5] is: 168 h, 1 wk, read-out: TG, Percent Change from Pre-Treatment.
Where [6] appears, read: 336 h, 2 wk, read-out: HDL-Cholesterol, Percent Change from Pre-Treatment.
Where [7] appears, read: 336 h, 2 wk, read-out: NonHDL-Cholesterol, Percent Change from Pre-Treatment.
[8] abbreviates: 336 h, 2 wk, read-out: TG, Percent Change from Pre-Treatment.
Where [9] appears, read: Table 7, ranges: confidence of estimate insufficient to assign a value.

`CC(C)(CO)CCCCC(=O)CCCCC(C)(CO)c1ccccc1` (centres unmarked) [Compound 218, 1,13-Dihydroxy-2,2,12-trimethyl-12-phenyltridecan-7-one]: the change in vivo at 30 mg/kg in assay [1] (setting [3]) is -18%; in assay [1] (setting [4]), 17%; in assay [1] (setting [5]), 18%; in assay [1] (setting [6]), -5%; in assay [1] (setting [7]), -8%; in assay [1] (setting [8]) it was -7%. The IC50 in assay [2] (setting [9]) was 1 µM.
As for `CC(CO)(CCCCCC(=O)CCCCCC(C)(CO)c1ccccc1)c1ccccc1` (centres unmarked) [Compound 214h, 1,15-Dihydroxy-2,14-dimethyl-2,14-diphenylpentadecan-8-one], the change in vivo at 100 mg/kg came to 2% in assay [1] (setting [3]); 29% in assay [1] (setting [4]); 24% in assay [1] (setting [5]); 10% in assay [1] (setting [6]); 9% in assay [1] (setting [7]); 1% in assay [1] (setting [8]). For the same compound, in assay [2] (setting [9]), the IC50 is 93 µM.
On to `CC(C)(CO)CCCCC(=O)CCCC(C)(C)CO` [Compound 217, 1,12-Dihydroxy-2,2,11,11-tetramethyldodecan-6-one], for which the change in vivo at 100 mg/kg in assay [1] (setting [3]) was 46%; in assay [1] (setting [4]) it was -26%; in assay [1] (setting [5]), -40%; in assay [1] (setting [6]) it was 48%; in assay [1] (setting [7]), 4%; in assay [1] (setting [8]) it was -11%. Also, in assay [2] (setting [9]), the IC50 is 3 to 10 µM.
In the case of `CC(CO)(CCCC(=O)CCCC(C)(CO)c1ccccc1)c1ccccc1` (centres unmarked) [Compound 214b, 1,11-Dihydroxy-2,10-dimethyl-2,10-diphenylundecan-6-one], the change in vivo at 100 mg/kg was -14% in assay [1] (setting [3]); -18% in assay [1] (setting [4]); -20% in assay [1] (setting [5]); -11% in assay [1] (setting [6]); -32% in assay [1] (setting [7]); -17% in assay [1] (setting [8]). Further, in assay [2] (setting [9]), the IC50 is 100 to 300 µM.
With `Cc1ccc(C(C)(CO)CCCCC(=O)CCCCC(C)(CO)c2ccc(C)cc2)cc1` (centres unmarked) [Compound 214e, 1,13-Dihydroxy-2,12-dimethyl-2,12-di-p-tolyltridecan-7-one], the IC50 in assay [2] (setting [9]) is 100 to 300 µM.
Take `CC(C)(CO)CCCCCCC(=O)CCCCCCC(C)(C)CO` [Compound 214i, 1,17-Dihydroxy-2,2,16,16-tetramethylheptadecan-9-one]: the change in vivo at 30 mg/kg was 85% in assay [1] (setting [3]); -50% in assay [1] (setting [4]); -58% in assay [1] (setting [5]); 61% in assay [1] (setting [6]); -32% in assay [1] (setting [7]); -33% in assay [1] (setting [8]). The 50% inhibitory concentration (IC50) in assay [2] (setting [9]) was 2 µM.
Regarding `CC(C)(CO)CCCCCC(=O)CCCCC(C)(C)CO` [Compound 219, 1,14-Dihydroxy-2,2,13,13-tetramethyltetradecan-7-one], the change in vivo at 100 mg/kg in assay [1] (setting [3]) is 78%; in assay [1] (setting [4]) it was -70%; in assay [1] (setting [5]), -85%; in assay [1] (setting [6]), 78%; in assay [1] (setting [7]), -78%; in assay [1] (setting [8]), -87%. In assay [2] (setting [9]), the IC50 is 2 µM.
For the compound `CC(C)Cc1ccc(C(C)(CO)CCCCC(=O)CCCCC(C)(CO)c2ccc(CC(C)C)cc2)cc1` (centres unmarked) [Compound 214f, 1,13-Dihydroxy-2,12-bis-(4-isobutylphenyl)-2,12-dimethyltridecan-7-one], the change in vivo at 100 mg/kg in assay [1] (setting [3]) was -5%; in assay [1] (setting [4]), 28%; in assay [1] (setting [5]), -11%; in assay [1] (setting [6]) it was 6%; in assay [1] (setting [7]), 34%; in assay [1] (setting [8]), -15%.
In the case of `CC(C)(CO)Cc1cccc(C(=O)c2cccc(CC(C)(C)CO)c2)c1` [Compound 232, Bis[3-(3-hydroxy-2,2-dimethylpropyl)-phenyl]-methanone], the change in vivo at 100 mg/kg in assay [1] (setting [3]) is 1%; in assay [1] (setting [4]) it was -15%; in assay [1] (setting [5]), -29%; in assay [1] (setting [6]) it was -11%; in assay [1] (setting [7]) it was -5%; in assay [1] (setting [8]), -8%. Also, the IC50 in assay [2] (setting [9]) is 52 µM.
Regarding `CC(C)(C)OC(=O)C1(CCCCC(=O)CCCCC2(C(=O)OC(C)(C)C)CC2)CC1` [Compound 106d, t-Butyl 1-[9-[1-(tert-butoxycarbonyl)cyclopropyl]-5-oxononyl]-1-cyclopropanecarboxylate], the IC50 in assay [2] (Table 6) was 35 µM.
`CCOC(=O)C(C)(C)CCCCCCCC(=O)CCCCCCCC(C)(C)C(=O)OCC` [Compound 106n, Diethyl 10-oxo-2,2,18,18-tetramethyl-nonadecanedioate] registered an IC50 in assay [2] (Table 6) of 13 µM.
Consider `CC(CCCCC(=O)CCCCC(C)(C(=O)O)c1ccccc1)(C(=O)O)c1ccccc1` (centres unmarked) [Compound 210d, 2,12-Dimethyl-7-oxo-2,12-diphenyltridecanedioic acid], for which the change in vivo at 100 mg/kg is 43% in assay [1] (setting [3]); 36% in assay [1] (setting [4]); -36% in assay [1] (setting [5]); 45% in assay [1] (setting [6]); 79% in assay [1] (setting [7]); -8% in assay [1] (setting [8]).
For the compound `CC(C)(CCCCCCC(=O)CCCCCCC(C)(C)C(=O)O)C(=O)O` [Compound 210i, 2,2,16,16-Tetramethyl-9-oxoheptadecanedioic acid], in assay [2] (setting [9]), the IC50 was 9 µM.
